Data published in ChEMBL document CHEMBL3045657, “Synthesis and biological evaluation of naphthalene, furan and pyrrole based chalcones as cytotoxic and antimicrobial agents” (2012).
Converted amounts (≈) assume the structure as drawn. The source made the active and inactive calls. The rule behind the calls is not given here.

Columns and labels:
Type in all cases: functional
[1] = test system: Aspergillus niger; assay: Antifungal activity against Aspergillus niger MTCC 1344 after 48 hr by serial tube dilution method; details: MTCC 1344, 48 h
[2] = test system: Candida albicans; assay: Antifungal activity against Candida albicans MTCC 3018 after 48 hr by serial tube dilution method; details: MTCC 3018, 48 h
[3] = test system: Escherichia coli; assay: Antibacterial activity against Escherichia coli MTCC 82 after 24 hr by serial tube dilution method
[4] = test system: Pseudomonas aeruginosa; assay: Antibacterial activity against Pseudomonas aeruginosa MTCC 2642 after 24 hr by serial tube dilution method
[5] = test system: IMR-32; assay: Cytotoxicity against Homo sapiens (human) IMR32 cells assessed as cell growth inhibition at 1 x 10^-5 M after 48 hr by SRB assay; details: for inhibition of growth at 10 µM: IMR-32, 48 h, read-out: GI
[6] = test system: HEp-2; assay: Cytotoxicity against Homo sapiens (human) Hep2 cells assessed as cell growth inhibition at 1 x 10^-5 M after 48 hr by SRB assay; details: for inhibition of growth at 10 µM: HEp-2, 48 h, read-out: GI
[7] = test system: PC-3; assay: Cytotoxicity against Homo sapiens (human) PC3 cells assessed as cell growth inhibition at 1 x 10^-5 M after 48 hr by SRB assay; details: for inhibition of growth at 10 µM: PC-3, 48 h, read-out: GI
[8] = test system: Salmonella typhi; assay: Antibacterial activity against Salmonella enterica subsp. enterica serovar Typhi MTCC 1251 after 24 hr by serial tube dilution method
[9] = test system: OVCAR; assay: Cytotoxicity against Homo sapiens (human) OVCAR cells assessed as cell growth inhibition at 1 x 10^-5 M after 48 hr by SRB assay; details: for inhibition of growth at 10 µM: read-out: GI
[10] = test system: Staphylococcus aureus; assay: Antibacterial activity against Staphylococcus aureus MTCC 96 after 24 hr by serial tube dilution method
[11] = test system: Bacillus subtilis; assay: Antibacterial activity against Bacillus subtilis MTCC 2451 after 24 hr by serial tube dilution method

Row | Compound | MIC [1] [mg/L] | MIC [2] [mg/L] | MIC ([3]; MTCC 82, 24 h) [mg/L] | MIC ([4]; MTCC 2642, 24 h) [mg/L] | inhibition of growth at 10 µM [5] [%] | growth inhibition (GI) [6] | growth inhibition (GI) [7] | MIC ([8]; MTCC 1251, 24 h) [mg/L] | inhibition of growth at 10 µM [9] [%] | MIC ([10]; MTCC 96, 24 h) [mg/L] | MIC ([11]; MTCC 2451, 24 h) [mg/L] | inhibition of growth at 10 µM [6] [%] | inhibition of growth at 10 µM [7] [%] | growth inhibition (GI) [9] | growth inhibition (GI) [5] | MIC [3] [mg/L] | MIC [4] [mg/L] | MIC [8] [mg/L] | MIC [10] [mg/L] | MIC [11] [mg/L]
1 | OC(Cn1cncn1)(Cn1cncn1)c1ccc(F)cc1F [FLUCONAZOLE] | 0.2 (≈ 0.653 µM) | 0.3 (≈ 0.98 µM) | – | – | – | – | – | – | – | – | – | – | – | – | – | – | – | – | – | –
2 | O=C(/C=C/c1cccc(Br)c1)c1ccc2ccccc2c1 | – | – | 250 (≈ 741 µM) | 250 (≈ 741 µM) | 11 | inactive | inactive | 125 (≈ 371 µM) | 14 | 125 (≈ 371 µM) | 125 (≈ 371 µM) | – | – | – | – | – | – | – | – | –
3 | COc1cccc(/C=C/C(=O)c2ccc[nH]2)c1OC | – | – | – | – | 28 | – | – | – | 24 | – | – | 33 | 31 | – | – | – | – | – | – | –
4 | COc1ccc(/C=C/C(=O)c2ccc3ccccc3c2)cc1OC | 250 (≈ 785 µM) | 500 (≈ 1570 µM) | 125 (≈ 393 µM) | 125 (≈ 393 µM) | 51 | – | – | 62.5 (≈ 196 µM) | 49 | 62.5 (≈ 196 µM) | 62.5 (≈ 196 µM) | 53 | 53 | – | – | – | – | – | – | –
5 | O=C(/C=C/c1ccc2c(c1)OCO2)c1ccco1 | 500 (≈ 2060 µM) | – | 125 (≈ 516 µM) | 125 (≈ 516 µM) | 16 | – | – | 125 (≈ 516 µM) | 11 | 62.5 (≈ 258 µM) | 31.2 (≈ 129 µM) | 13 | 21 | – | – | – | – | – | – | –
6 | COc1cc(/C=C/C(=O)c2ccco2)cc(OC)c1OC | 62.5 (≈ 217 µM) | 62.5 (≈ 217 µM) | 62.5 (≈ 217 µM) | 15.6 (≈ 54.1 µM) | 49 | – | – | 31.2 (≈ 108 µM) | 28 | 15.6 (≈ 54.1 µM) | 31.2 (≈ 108 µM) | 47 | 42 | – | – | – | – | – | – | –
7 | O=C(/C=C/c1ccco1)c1ccc2ccccc2c1 | – | – | – | 250 (≈ 1010 µM) | 13 | – | – | 500 (≈ 2010 µM) | – | 125 (≈ 503 µM) | 250 (≈ 1010 µM) | 21 | 16 | inactive | – | – | – | – | – | –
8 | O=C(/C=C/c1ccc(Cl)cc1Cl)c1ccc[nH]1 | 62.5 (≈ 235 µM) | 125 (≈ 470 µM) | 15.6 (≈ 58.6 µM) | 31.2 (≈ 117 µM) | – | – | inactive | 15.6 (≈ 58.6 µM) | 13 | 7.8 (≈ 29.3 µM) | 15.6 (≈ 58.6 µM) | 16 | – | – | inactive | – | – | – | – | –
9 | COc1ccc(/C=C/C(=O)c2ccc3ccccc3c2)c(OC)c1OC | 62.5 (≈ 179 µM) | 125 (≈ 359 µM) | 15.6 (≈ 44.8 µM) | 7.8 (≈ 22.4 µM) | 75 | – | – | 15.6 (≈ 44.8 µM) | 88 | 3.9 (≈ 11.2 µM) | 3.9 (≈ 11.2 µM) | 72 | 81 | – | – | – | – | – | – | –
10 | COc1ccc(OC)c(/C=C/C(=O)c2ccco2)c1 | 125 (≈ 484 µM) | 125 (≈ 484 µM) | 31.2 (≈ 121 µM) | 31.2 (≈ 121 µM) | 31 | – | – | 62.5 (≈ 242 µM) | – | 62.5 (≈ 242 µM) | 31.2 (≈ 121 µM) | 29 | 23 | inactive | – | – | – | – | – | –
11 | O=C(/C=C/c1cccc(Cl)c1Cl)c1ccc2ccccc2c1 | 250 (≈ 764 µM) | 250 (≈ 764 µM) | 31.2 (≈ 95.4 µM) | 62.5 (≈ 191 µM) | – | – | inactive | 62.5 (≈ 191 µM) | 11 | 31.2 (≈ 95.4 µM) | 31.2 (≈ 95.4 µM) | 9 | – | – | inactive | – | – | – | – | –
12 | O=C(/C=C/c1cccc([N+](=O)[O-])c1)c1ccc2ccccc2c1 | – | – | 250 (≈ 824 µM) | – | 11 | – | – | – | 13 | 125 (≈ 412 µM) | – | 17 | 16 | – | – | – | – | – | – | –
13 | COc1ccc(/C=C/C(=O)c2ccc3ccccc3c2)cc1O | – | – | 62.5 (≈ 205 µM) | 250 (≈ 821 µM) | 61 | – | – | 125 (≈ 411 µM) | 52 | 15.6 (≈ 51.3 µM) | 31.2 (≈ 103 µM) | 57 | 47 | – | – | – | – | – | – | –
14 | O=C(/C=C/c1ccc2c(c1)OCO2)c1ccc2ccccc2c1 | – | – | 125 (≈ 413 µM) | 250 (≈ 827 µM) | 39 | – | – | 125 (≈ 413 µM) | 46 | 62.5 (≈ 207 µM) | 125 (≈ 413 µM) | 42 | 42 | – | – | – | – | – | – | –
15 | O=C(/C=C/c1c(Cl)cccc1Cl)c1ccco1 | 250 (≈ 936 µM) | 250 (≈ 936 µM) | 62.5 (≈ 234 µM) | 250 (≈ 936 µM) | – | – | inactive | 125 (≈ 468 µM) | – | 62.5 (≈ 234 µM) | 125 (≈ 468 µM) | 11 | – | inactive | inactive | – | – | – | – | –
16 | O=C(/C=C/c1cccc([N+](=O)[O-])c1)c1ccc[nH]1 | 500 (≈ 2060 µM) | – | 250 (≈ 1030 µM) | – | 14 | – | – | 500 (≈ 2060 µM) | – | 125 (≈ 516 µM) | 250 (≈ 1030 µM) | 17 | 13 | inactive | – | – | – | – | – | –
17 | O=C(/C=C/c1ccccc1)c1ccc2ccccc2c1 | – | – | 500 (≈ 1940 µM) | 500 (≈ 1940 µM) | 19 | – | – | – | 21 | 250 (≈ 968 µM) | – | 27 | 28 | – | – | – | – | – | – | –
18 | O=C(/C=C/c1cccc([N+](=O)[O-])c1)c1ccco1 | – | – | 125 (≈ 514 µM) | 125 (≈ 514 µM) | – | – | inactive | – | 13 | 125 (≈ 514 µM) | 125 (≈ 514 µM) | 16 | – | – | inactive | – | – | – | – | –
19 | COc1ccc(/C=C/C(=O)c2ccco2)cc1O | 250 (≈ 1020 µM) | 250 (≈ 1020 µM) | 62.5 (≈ 256 µM) | 125 (≈ 512 µM) | 16 | – | – | 62.5 (≈ 256 µM) | 23 | 31.2 (≈ 128 µM) | 62.5 (≈ 256 µM) | 19 | 21 | – | – | – | – | – | – | –
20 | COc1ccc(/C=C/C(=O)c2ccco2)cc1OC | 125 (≈ 484 µM) | 250 (≈ 968 µM) | 15.6 (≈ 60.4 µM) | 31.2 (≈ 121 µM) | 33 | – | – | 15.6 (≈ 60.4 µM) | – | 31.2 (≈ 121 µM) | 31.2 (≈ 121 µM) | 27 | 29 | inactive | – | – | – | – | – | –
21 | CC1(C)S[C@@H]2[C@H](NC(=O)[C@H](N)c3ccc(O)cc3)C(=O)N2[C@H]1C(=O)O [AMOXICILLIN] | – | – | 0.25 (≈ 0.684 µM) | 0.3 (≈ 0.821 µM) | – | – | – | 0.2 (≈ 0.547 µM) | – | 0.2 (≈ 0.547 µM) | 0.2 (≈ 0.547 µM) | – | – | – | – | – | – | – | – | –
22 | O=C(/C=C/c1ccccc1)c1ccco1 | – | – | – | – | 13 | inactive | – | – | – | 250 (≈ 1260 µM) | 250 (≈ 1260 µM) | – | 19 | inactive | – | – | – | – | – | –
23 | COc1ccc(OC)c(/C=C/C(=O)c2ccc3ccccc3c2)c1 | – | – | 250 (≈ 785 µM) | – | 51 | – | – | 250 (≈ 785 µM) | 52 | 125 (≈ 393 µM) | 125 (≈ 393 µM) | 47 | 49 | – | – | – | – | – | – | –
24 | O=C(/C=C/c1cccc(Cl)c1Cl)c1ccc[nH]1 | 125 (≈ 470 µM) | 250 (≈ 939 µM) | 15.6 (≈ 58.6 µM) | 7.8 (≈ 29.3 µM) | – | – | – | 15.6 (≈ 58.6 µM) | – | 7.8 (≈ 29.3 µM) | 31.2 (≈ 117 µM) | 15 | 11 | inactive | inactive | – | – | – | – | –
25 | O=C(/C=C/c1ccccc1)c1ccc[nH]1 | – | – | 500 (≈ 2540 µM) | – | 14 | – | – | 500 (≈ 2540 µM) | 18 | 125 (≈ 634 µM) | 250 (≈ 1270 µM) | 23 | 22 | – | – | – | – | – | – | –
26 | O=C(/C=C/c1ccc([N+](=O)[O-])cc1)c1ccc[nH]1 | – | – | 500 (≈ 2060 µM) | – | 11 | – | – | – | 14 | 250 (≈ 1030 µM) | – | 13 | 11 | – | – | – | – | – | – | –
27 | GENTAMICIN | – | – | – | – | – | – | – | – | – | – | – | – | – | – | – | 0.25 | 0.25 | 0.2 | 0.4 | 0.3
28 | O=C(/C=C/c1c(Cl)cccc1Cl)c1ccc[nH]1 | 125 (≈ 470 µM) | 125 (≈ 470 µM) | 15.6 (≈ 58.6 µM) | 31.2 (≈ 117 µM) | 12 | – | inactive | 31.2 (≈ 117 µM) | – | 15.6 (≈ 58.6 µM) | 31.2 (≈ 117 µM) | 16 | – | inactive | – | – | – | – | – | –
29 | O=C(/C=C/c1ccc2ccccc2c1)c1ccc2ccccc2c1 | – | – | 125 (≈ 405 µM) | 250 (≈ 811 µM) | 77 | – | – | – | 76 | 62.5 (≈ 203 µM) | 125 (≈ 405 µM) | 73 | 79 | – | – | – | – | – | – | –
30 | COc1ccc(/C=C/C(=O)c2ccc3ccccc3c2)cc1 | – | – | – | – | 36 | – | – | – | 31 | – | – | 29 | 33 | – | – | – | – | – | – | –
